The values that follow come from patent US11524966B1 (Valo Early Discovery, Inc., priority 2017, dated 2022).

The term IC50 denotes the concentration at which inhibition is half-maximal.

The test concerns the target T1, USP28 (His-tagged USP28-FL-mammalian) (Homo sapiens, UniProt Q96RU2).
T1 construct: Expression of USP28 (1-1077)-TEV-6*His (pTT5 vector); made in house; host or cells: Expi293f cells (pTT5 vector)
T1 sequence (Q96RU2 1-1077): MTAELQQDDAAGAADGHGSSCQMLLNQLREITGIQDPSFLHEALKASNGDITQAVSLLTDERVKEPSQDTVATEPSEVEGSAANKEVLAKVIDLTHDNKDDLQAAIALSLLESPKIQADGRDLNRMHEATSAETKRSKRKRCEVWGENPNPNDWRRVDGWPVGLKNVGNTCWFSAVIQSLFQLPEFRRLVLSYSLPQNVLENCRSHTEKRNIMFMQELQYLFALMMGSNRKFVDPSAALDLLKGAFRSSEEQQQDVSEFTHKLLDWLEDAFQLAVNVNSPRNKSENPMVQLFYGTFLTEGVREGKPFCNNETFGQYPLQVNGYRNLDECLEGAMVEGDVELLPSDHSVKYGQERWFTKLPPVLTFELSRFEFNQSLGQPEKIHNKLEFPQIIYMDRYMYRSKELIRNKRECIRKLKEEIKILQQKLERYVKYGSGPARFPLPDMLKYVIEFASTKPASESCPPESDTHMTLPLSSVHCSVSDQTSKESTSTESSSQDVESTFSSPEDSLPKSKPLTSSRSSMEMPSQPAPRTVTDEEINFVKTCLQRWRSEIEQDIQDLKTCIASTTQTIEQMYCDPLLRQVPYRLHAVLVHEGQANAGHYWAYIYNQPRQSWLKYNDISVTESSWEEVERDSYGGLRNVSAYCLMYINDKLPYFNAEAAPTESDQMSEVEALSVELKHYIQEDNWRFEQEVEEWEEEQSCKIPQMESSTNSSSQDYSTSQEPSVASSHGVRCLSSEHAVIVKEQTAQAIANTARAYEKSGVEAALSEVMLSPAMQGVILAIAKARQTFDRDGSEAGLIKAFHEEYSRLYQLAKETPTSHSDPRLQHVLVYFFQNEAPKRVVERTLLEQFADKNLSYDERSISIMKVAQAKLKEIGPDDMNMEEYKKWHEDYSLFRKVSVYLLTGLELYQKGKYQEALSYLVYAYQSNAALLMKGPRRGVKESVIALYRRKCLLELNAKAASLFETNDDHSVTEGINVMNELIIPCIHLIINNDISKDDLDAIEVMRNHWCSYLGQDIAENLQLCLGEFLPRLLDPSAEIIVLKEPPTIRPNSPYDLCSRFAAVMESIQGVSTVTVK
Kind of test: Ubiquitin-Rhodamine 110 Assay for USP28 Activity, Example A-1(a). In kind it is biochemical. The note with it: Ubiquitin-Rhodamine 110 assay, Example A-1(a); read-out: USP28 A-1(a) IC50 range. Here is the method:
Example A-1(a): Biochemical Assay: Ubiquitin-Rhodamine 110 Assay for USP28 Activity
The assay was performed in a final volume of 9 μL in assay buffer containing 20 mM Tris-HCl (pH 8.0, (1M Tris-HCl, pH 8.0 solution; Corning 46-031-CM)), 3 mM BME (2-Mercaptoethanol; Sigma 63689-25ML-F), 0.03% BGG (0.22 μM filtered, Sigma, G7516-25G), and 0.01% Triton X-100 (Sigma, T9284-10L). Nanoliter quantities of 10-point, 3-fold serial dilution in DMSO was pre-dispensed into 1536 assay plates (Corning, #3724BC) for a final test concentration of 25 μM to 1.3 nM, top to lowest dose, respectively. Enzyme USP28, construct His-tagged USP28-FL-mammalian, (protein expression and purification procedure described below). Concentration and incubation times were optimized for the maximal signal-to-background while maintaining initial velocity conditions at a fixed substrate concentration. The final concentration of the enzyme in the assay was 75 μM. Final substrate (Ub-Rh110; Ubiquitin-Rhodamine 110, UbiQ-126) concentration was 25 nM with [Ub-Rh110]<<Km. 3 μL of 2× enzyme was added to assay plates (pre-stamped with compound) preincubated with […] for 30 minutes and then 3 μL of 2×Ub-Rh110 was added to assay plates. Plates were incubated for 45 minutes at room temperature before addition of 3 μL of stop solution (final concentration of 10 mM citric acid (Sigma, 251275-500G)). Fluorescence was read on the Envision (Excitation at 485 nm and Emission at 535 nm; Perkin Elmer) or on the PheraSTAR (Excitation at 485 nm and Emission at 535 nm; BMG Labtech).
Procedure for the Protein Expression and Purification for Construct His-Tagged USP28-FL-Mammalian
Expression of USP28 (1-1077)-TEV-6*His (pTT5 vector) was carried out in Expi293f cells (sequence derived from uniprot ID: Q96RU2-1). Cells were re-suspended in lysis buffer B 50 mM Bicine, pH 8.0, 20 mM NaCl, 5% glycerol, 0.1% CHAPS, 5 mM β-ME, 1 mM PMSF, 1 ug/ml Leupeptin, 1 ug/ml Pepstatin) and lysed by sonication. Insoluble material was removed by centrifugation and the supernatant was loaded onto a Ni-NTA column (GE Healthcare) equilibrated with Ni Buffer A (50 mM Bicine, pH 8.0, 20 mM NaCl, 5% glycerol, 0.1% CHAPS, 5 mM β-ME.) and washed with Ni Buffer A+20 mM imidazole until A280 reached baseline. The protein was eluted with Ni Buffer B (50 mM Bicine, pH 8.0, 20 mM NaCl, 5% glycerol, 0.1% CHAPS, 5 mM β-ME, 300 mM imidazole.). The protein was further purified using a Superdex™ 200 10/300 GL column (GE Healthcare) equilibrated with 50 mM Bicine, pH 8.0, 20 mM NaCl, 5% glycerol, 0.1% CHAPS, 5 mM β-ME. The protein was concentrated to 2.5 mg ml^−1, flash-frozen in liquid N2 and stored at −80° C.
For assay formats Example A-1(a), A-1(b), and A-2, data were reported as percent inhibition compared with control wells based on the following equation: % inh=1−((FLU−AveLow)/(AveHigh−AveLow)) where FLU=measured Fluorescence, AveLow=average Fluorescence of no enzyme control (n=16), and AveHigh=average Fluorescence of DMSO control (n=16). IC50 values were determined by curve fitting of the standard 4 parameter logistic fitting algorithm included in the Activity Base software package: IDBS XE Designer Model 205. Data is fitted using the Levenburg Marquardt algorithm.
In the case of `COC[C@]1(N)CCN(c2ccc3c(n2)CC[C@H](NC(=O)c2sc4nc(C)ccc4c2N)C3)C1` [Example 389, 3-amino-N-[(6S)-2-[(3S)-3-amino-3-(methoxymethyl)pyrrolidin-1-yl]-5,6,7,8-tetrahydroquinolin-6-yl]-6-methylthieno[2,3-b]pyridine-2-carboxamide], the IC50 was 50 to 200 nM.
Regarding `Cc1ccc2c(N)c(C(=O)N[C@H]3CCc4nc(N5C[C@@H]6CCN[C@H](C5)C6(F)F)ccc4C3)sc2n1` [Example 367, 3-amino-N-[(6S)-2-[(1R,5S)-9,9-difluoro-2,7-diazabicyclo[3.3.1]nonan-7-yl]-5,6,7,8-tetrahydroquinolin-6-yl]-6-methylthieno[2,3-b]pyridine-2-carboxamide], the IC50 fell in the range of 1 to 50 nM.
With `Cc1ccc2c(N)c(C(=O)N(C)[C@@H]3COc4cc(N5CCNCC5)cc(F)c4C3)sc2n1` [Example 10-16, 3-amino-N-[(3S)-5-fluoro-7-(piperazin-1-yl)-3,4-dihydro-2H-1-benzopyran-3-yl]-N,6-dimethylthieno[2,3-b]pyridine-2-carboxamide] the figure was above 2000 nM; with `Cc1ccc2c(N)c(C(=O)N[C@@H]3CCc4nc(N5C[C@H](C(F)F)[C@@H](N)C5)ncc4C3)sc2n1` [Example 383, 3-amino-N-[(6R)-2-[(3R,4S)-3-amino-4-(difluoromethyl)pyrrolidin-1-yl]-5,6,7,8-tetrahydroquinazolin-6-yl]-6-methylthieno[2,3-b]pyridine-2-carboxamide], above 2000 nM.
Under `CCn1ccc2cc(C(=O)N[C@H]3CCc4nc(N5C[C@@H](N)[C@H](C(F)F)C5)ccc4C3)cnc21` [Example 371, N-[(6S)-2-[(3S,4R)-3-amino-4-(difluoromethyl)pyrrolidin-1-yl]-5,6,7,8-tetrahydroquinolin-6-yl]-1-ethyl-1H-pyrrolo[2,3-b]pyridine-5-carboxamide] stands 200 to 2000 nM; under `Cc1ccc2c(N)c(C(=O)N[C@H]3CCc4nc(N5C[C@@H](N)C6(C5)OCCO6)ccc4C3)sc2n1` (single isomer, unassigned) [Example 29-2], 200 to 2000 nM; under `CCn1ccc2cc(C(=O)N[C@H]3CCc4nc(N5C[C@H](NC)[C@@H](OC)C5)ccc4C3)cnc21` [Example 402, 1-ethyl-N-[(6S)-2-[(3S,4S)-3-methoxy-4-(methylamino)pyrrolidin-1-yl]-5,6,7,8-tetrahydroquinolin-6-yl]-1H-pyrrolo[2,3-b]pyridine-5-carboxamide], 200 to 2000 nM.
With `Cc1ccc2c(N)c(C(=O)N[C@@H]3CCc4nc(N5C[C@H](OC(C)C)[C@@H](N)C5)ncc4C3)sc2n1` [Example 272, 3-amino-N-[(6R)-2-[(3S,4S)-3-amino-4-(propan-2-yloxy)pyrrolidin-1-yl]-5,6,7,8-tetrahydroquinazolin-6-yl]-6-methylthieno[2,3-b]pyridine-2-carboxamide] the figure was 200 to 2000 nM; with `Cc1ccc2c(N)c(C(=O)N[C@H]3CCc4nc(N5CC[C@@](N)(CO)C5)ccc4C3)sc2n1` [Example 387, 3-amino-N-[(6S)-2-[(3S)-3-amino-3-(hydroxymethyl)pyrrolidin-1-yl]-5,6,7,8-tetrahydroquinolin-6-yl]-6-methylthieno[2,3-b]pyridine-2-carboxamide], 50 to 200 nM; with `Cc1ccc2c(N)c(C(=O)N[C@H]3CCc4nc(N5C[C@@H]6COC[C@]6(N)C5)ccc4C3)sc2n1` [Example 394, N-[(6S)-2-[(3aR,6aS)-3a-amino-hexahydro-1H-furo[3,4-c]pyrrol-5-yl]-5,6,7,8-tetrahydroquinolin-6-yl]-3-amino-6-methylthieno[2,3-b]pyridine-2-carboxamide], 50 to 200 nM.
As to `Cc1ccc2c(N)c(C(=O)N[C@@H]3CCc4nc(N5C[C@@H](N)[C@H](C(F)F)C5)ncc4C3)sc2n1` [Example 382, 3-amino-N-[(6R)-2-[(3S,4R)-3-amino-4-(difluoromethyl)pyrrolidin-1-yl]-5,6,7,8-tetrahydroquinazolin-6-yl]-6-methylthieno[2,3-b]pyridine-2-carboxamide], the IC50 was in the range of 200 to 2000 nM.
On to `CO[C@H]1CN(c2ncc3c(n2)CC[C@@H](NC(=O)c2sc4nc(C)cc(C)c4c2N)C3)C[C@@H]1N` [Example 274, 3-amino-N-[(6R)-2-[(3S,4S)-3-amino-4-methoxypyrrolidin-1-yl]-5,6,7,8-tetrahydroquinazolin-6-yl]-4,6-dimethylthieno[2,3-b]pyridine-2-carboxamide], for which the half-maximal inhibitory concentration (IC50) lay within 200 to 2000 nM.
With `Cc1ccc2c(N)c(C(=O)N[C@H]3COc4cc(N5C[C@@H](CF)[C@@H](N)C5)ccc4C3)sc2n1` [Example 423, 3-amino-N-[(3R)-7-[(3R,4R)-3-amino-4-(fluoromethyl)pyrrolidin-1-yl]-3,4-dihydro-2H-1-benzopyran-3-yl]-6-methylthieno[2,3-b]pyridine-2-carboxamide] the figure was 1 to 50 nM.
Under `CN[C@H]1CN(c2ccc3c(n2)CC[C@H](NC(=O)c2sc4nc(C)ccc4c2N)C3)C[C@@H]1C(F)F` [Example 376, 3-amino-N-[(6S)-2-[(3S,4R)-3-(difluoromethyl)-4-(methylamino)pyrrolidin-1-yl]-5,6,7,8-tetrahydroquinolin-6-yl]-6-methylthieno[2,3-b]pyridine-2-carboxamide] stands 50 to 200 nM; under `Cc1ccc2c(N)c(C(=O)N[C@H]3COc4cc(N5C[C@@H](N)[C@@H]6OCC[C@@H]65)ccc4C3)sc2n1` [Example 425, N-[(3R)-7-[(3aS,6R,6aS)-6-amino-hexahydro-2H-furo[3,2-b]pyrrol-4-yl]-3,4-dihydro-2H-1-benzopyran-3-yl]-3-amino-6-methylthieno[2,3-b]pyridine-2-carboxamide], 1 to 50 nM.
With `COCC1(N)CN(c2ccc3c(c2)OC[C@H](NC(=O)c2sc4nc(C)ccc4c2N)C3)C1` [Example 373, 3-amino-N-[(3R)-7-[3-amino-3-(methoxymethyl)azetidin-1-yl]-3,4-dihydro-2H-1-benzopyran-3-yl]-6-methylthieno[2,3-b]pyridine-2-carboxamide] the figure was 1 to 50 nM.
